The values that follow are results of earlier work, collected in patent US20210205766A1, “METHODS AND RELATED APPARATUS FOR PROVIDING A PROCESSING SOLUTION FOR A FOOD PROCESSING APPLICATION” (Zee Company, Inc., priority 2016, published 2021).

For this data set the following is noted: about half active (free), about half dissociated (bound) at pH of about 8.4.

On to peroxyacetic acid [PAA], for which the pKA entry is recorded as “about 8.4”.
